Consider seven compounds from ChEMBL document CHEMBL4049462, “Synthesis and Biological Evaluation of Novel Neuroprotective Pyridazine Derivatives as Excitatory Amino Acid Transporter 2 (EAAT2) Activators” (2017).

The structures appear in SMILES notation.

Common to all, as to format: functional
Test [1] relates to Rattus norvegicus. Kind of test: Antihypersensitivity in oxaliplatin-induced Sprague-Dawley rat hyperalgesia model assessed as increase in weight tolerated on posterior paw at 3 mg/kg, sc administered daily for 7 days post oxaliplatin challenge measured on day 7 post last dose by analgesimeter relative to control.
Test [2] concerns Rattus norvegicus. Description: Antiallodynic activity in oxaliplatin-induced Sprague-Dawley rat allodynia model assessed as paw withdrawal latency time at 3 mg/kg, sc administered daily up to day 6 measured on day 7 post last dose by cold plate test (reference value: 14.3 +/- 0.3 secs).
In test [3] the test system is Rattus norvegicus. Kind of test: Antiallodynic activity in oxaliplatin-induced Sprague-Dawley rat allodynia model assessed as increase in paw withdrawal latency time at 3 mg/kg, sc administered daily up to day 13 measured on day 14 post last dose by Von Frey test relative to control.
In test [4] the test system is Rattus norvegicus. Description: Antihypersensitivity in oxaliplatin-induced Sprague-Dawley rat thermal hyperalgesia model assessed as paw withdrawal latency time at 3 mg/kg, sc administered daily up to day 6 measured on day 7 post last dose by plantar test (reference value: 9 +/- 1 secs).
Test [5] relates to Rattus norvegicus. Description: Antihypersensitivity in oxaliplatin-induced Sprague-Dawley rat thermal hyperalgesia model assessed as paw withdrawal latency time at 3 mg/kg, sc administered daily up to day 13 measured on day 14 post last dose by plantar test (reference value: 10.6 +/- 0.5 secs).
In test [6] the test system is Rattus norvegicus. Description: Antihypersensitivity in oxaliplatin-induced Sprague-Dawley rat hyperalgesia model assessed as increase in weight tolerated on posterior paw at 3 mg/kg, sc administered daily for 14 days post oxaliplatin challenge measured on day 14 post last dose by analgesimeter relative to control.
In test [7] the test system is Rattus norvegicus. Description: Antiallodynic activity in oxaliplatin-induced Sprague-Dawley rat allodynia model assessed as paw withdrawal latency time at 3 mg/kg, sc administered daily up to day 13 measured on day 14 post last dose by cold plate test (reference value: 12 +/- 1.2 secs).
For test [8], the system named is Rattus norvegicus. Description: Antiallodynic activity in oxaliplatin-induced Sprague-Dawley rat allodynia model assessed as increase in paw withdrawal latency time at 3 mg/kg, sc administered daily up to day 6 measured on day 7 post last dose by Von Frey test relative to control.
The test system of test [9] is Rattus norvegicus. Kind of test: Antihypersensitivity in oxaliplatin-induced Sprague-Dawley rat hyperalgesia model assessed as weight tolerated on posterior paw at 3.43 mg/kg, sc administered daily for 7 days post oxaliplatin challenge measured on day 7 post last dose by analgesimeter (reference value: 46.1 +/- 0.5 g).
The test system of test [10] is Rattus norvegicus. Kind of test: Antiallodynic activity in oxaliplatin-induced Sprague-Dawley rat allodynia model assessed as paw withdrawal latency time at 3.43 mg/kg, sc administered daily up to day 6 measured on day 7 post last dose by cold plate test (reference value: 14.3 +/- 0.3 secs).
In test [11] the test system is Rattus norvegicus. Kind of test: Antihypersensitivity in oxaliplatin-induced Sprague-Dawley rat thermal hyperalgesia model assessed as paw withdrawal latency time at 3.43 mg/kg, sc administered daily up to day 13 measured on day 14 post last dose by plantar test (reference value: 10.6 +/- 0.5 secs).
The subject of test [12] is Rattus norvegicus. Description: Antiallodynic activity in oxaliplatin-induced Sprague-Dawley rat allodynia model assessed as paw withdrawal latency time at 3.43 mg/kg, sc administered daily up to day 13 measured on day 14 post last dose by cold plate test (reference value: 12 +/- 1.2 secs).
In test [13] the test system is Rattus norvegicus. Description: Antihypersensitivity in oxaliplatin-induced Sprague-Dawley rat hyperalgesia model assessed as increase in weight tolerated on posterior paw at 3.43 mg/kg, sc administered daily up to day 13 measured on day 14 post last dose by analgesimeter relative to control.
Test [14] concerns Rattus norvegicus. Description: Antiallodynic activity in oxaliplatin-induced Sprague-Dawley rat allodynia model assessed as paw withdrawal latency time at 3.43 mg/kg, sc administered daily up to day 6 measured on day 7 post last dose by Von Frey test (reference value: 12.4 +/- 1.2 secs).
Test [15] deals with Rattus norvegicus. Description: Antihypersensitivity in oxaliplatin-induced Sprague-Dawley rat thermal hyperalgesia model assessed as paw withdrawal latency time at 3.43 mg/kg, sc administered daily up to day 6 measured on day 7 post last dose by plantar test (reference value: 9 +/- 1 secs).
In test [16] the test system is Rattus norvegicus. Description: Antiallodynic activity in oxaliplatin-induced Sprague-Dawley rat allodynia model assessed as increase in paw withdrawal latency time at 3.37 mg/kg, sc administered daily up to day 13 measured on day 14 post last dose by Von Frey test relative to control.
The subject of test [17] is Rattus norvegicus. Kind of test: Antihypersensitivity in oxaliplatin-induced Sprague-Dawley rat hyperalgesia model assessed as increase in weight tolerated on posterior paw at 3.37 mg/kg, sc administered daily up to day 13 measured on day 14 post last dose by analgesimeter relative to control.
Test [18] concerns Rattus norvegicus. Kind of test: Antihypersensitivity in oxaliplatin-induced Sprague-Dawley rat thermal hyperalgesia model assessed as paw withdrawal latency time at 3.37 mg/kg, sc administered daily up to day 6 measured on day 7 post last dose by plantar test (reference value: 9 +/- 1 secs).
Test [19] has as its system Rattus norvegicus. Description: Antihypersensitivity in oxaliplatin-induced Sprague-Dawley rat hyperalgesia model assessed as weight tolerated on posterior paw at 3.37 mg/kg, sc administered daily for 7 days post oxaliplatin challenge measured on day 7 post last dose by analgesimeter (reference value: 46.1 +/- 0.5 g).
In test [20] the test system is Rattus norvegicus. Description: Antiallodynic activity in oxaliplatin-induced Sprague-Dawley rat allodynia model assessed as paw withdrawal latency time at 3.37 mg/kg, sc administered daily up to day 6 measured on day 7 post last dose by Von Frey test (reference value: 12.4 +/- 1.2 secs).
Test [21] concerns Rattus norvegicus. Kind of test: Antiallodynic activity in oxaliplatin-induced Sprague-Dawley rat allodynia model assessed as paw withdrawal latency time at 3.37 mg/kg, sc administered daily up to day 6 measured on day 7 post last dose by cold plate test (reference value: 14.3 +/- 0.3 secs).
The test system of test [22] is Rattus norvegicus. Description: Antihypersensitivity in oxaliplatin-induced Sprague-Dawley rat thermal hyperalgesia model assessed as paw withdrawal latency time at 3.37 mg/kg, sc administered daily up to day 13 measured on day 14 post last dose by plantar test (reference value: 10.6 +/- 0.5 secs).
Test [23] deals with Rattus norvegicus. Kind of test: Antiallodynic activity in oxaliplatin-induced Sprague-Dawley rat allodynia model assessed as increase in paw withdrawal latency time at 3.43 mg/kg, sc administered daily up to day 13 measured on day 14 post last dose by Von Frey test relative to control.
Test [24] concerns Rattus norvegicus. Kind of test: Antiallodynic activity in oxaliplatin-induced Sprague-Dawley rat allodynia model assessed as paw withdrawal latency time at 3.37 mg/kg, sc administered daily up to day 13 measured on day 14 post last dose by cold plate test (reference value: 12 +/- 1.2 secs).
Test [25] deals with Rattus norvegicus. Description: Antiallodynic activity in oxaliplatin-induced Sprague-Dawley rat allodynia model assessed as paw withdrawal latency time at 3.28 mg/kg, sc administered daily up to day 13 measured on day 14 post last dose by cold plate test (reference value: 12 +/- 1.2 secs).
In test [26] the test system is Rattus norvegicus. Description: Antihypersensitivity in oxaliplatin-induced Sprague-Dawley rat thermal hyperalgesia model assessed as paw withdrawal latency time at 3.28 mg/kg, sc administered daily up to day 6 measured on day 7 post last dose by plantar test (reference value: 9 +/- 1 secs).
The subject of test [27] is Rattus norvegicus. Description: Antiallodynic activity in oxaliplatin-induced Sprague-Dawley rat allodynia model assessed as paw withdrawal latency time at 3.28 mg/kg, sc administered daily up to day 6 measured on day 7 post last dose by cold plate test (reference value: 14.3 +/- 0.3 secs).
Test [28] has as its system Rattus norvegicus. Description: Antihypersensitivity in oxaliplatin-induced Sprague-Dawley rat hyperalgesia model assessed as weight tolerated on posterior paw at 3.28 mg/kg, sc administered daily for 7 days post oxaliplatin challenge measured on day 7 post last dose by analgesimeter (reference value: 46.1 +/- 0.5 g).
The test system of test [29] is Rattus norvegicus. Kind of test: Antiallodynic activity in oxaliplatin-induced Sprague-Dawley rat allodynia model assessed as paw withdrawal latency time at 3.28 mg/kg, sc administered daily up to day 13 measured on day 14 post last dose by Von Frey test (reference value: 11.6 +/- 0.5 secs).
Test [30] relates to Rattus norvegicus. Kind of test: Antiallodynic activity in oxaliplatin-induced Sprague-Dawley rat allodynia model assessed as increase in paw withdrawal latency time at 3.28 mg/kg, sc administered daily up to day 6 measured on day 7 post last dose by Von Frey test relative to control.
Test [31] concerns Rattus norvegicus. Kind of test: Antihypersensitivity in oxaliplatin-induced Sprague-Dawley rat hyperalgesia model assessed as weight tolerated on posterior paw at 3.28 mg/kg, sc administered daily up to day 13 measured on day 14 post last dose by analgesimeter (reference value: 44.7 +/- 1.2 g).
Test [32] has as its system Rattus norvegicus. Description: Antihypersensitivity in oxaliplatin-induced Sprague-Dawley rat thermal hyperalgesia model assessed as paw withdrawal latency time at 3.28 mg/kg, sc administered daily up to day 13 measured on day 14 post last dose by plantar test (reference value: 10.6 +/- 0.5 secs).
The subject of test [33] is Rattus norvegicus. Description: Antihypersensitivity in oxaliplatin-induced Sprague-Dawley rat hyperalgesia model assessed as weight tolerated on posterior paw at 3.42 mg/kg, sc administered daily for 7 days post oxaliplatin challenge measured on day 7 post last dose by analgesimeter (reference value: 46.1 +/- 0.5 g).
Test [34] concerns Rattus norvegicus. Description: Antihypersensitivity in oxaliplatin-induced Sprague-Dawley rat thermal hyperalgesia model assessed as paw withdrawal latency time at 3.42 mg/kg, sc administered daily up to day 6 measured on day 7 post last dose by plantar test (reference value: 9 +/- 1 secs).
Test [35] has as its system Rattus norvegicus. Kind of test: Antihypersensitivity in oxaliplatin-induced Sprague-Dawley rat thermal hyperalgesia model assessed as paw withdrawal latency time at 3.42 mg/kg, sc administered daily up to day 13 measured on day 14 post last dose by plantar test (reference value: 10.6 +/- 0.5 secs).
The test system of test [36] is Rattus norvegicus. Description: Antiallodynic activity in oxaliplatin-induced Sprague-Dawley rat allodynia model assessed as increase in paw withdrawal latency time at 3.42 mg/kg, sc administered daily up to day 13 measured on day 14 post last dose by Von Frey test relative to control.
The test system of test [37] is Rattus norvegicus. Description: Antiallodynic activity in oxaliplatin-induced Sprague-Dawley rat allodynia model assessed as paw withdrawal latency time at 3.42 mg/kg, sc administered daily up to day 6 measured on day 7 post last dose by cold plate test (reference value: 14.3 +/- 0.3 secs).
Test [38] deals with Rattus norvegicus. Kind of test: Antiallodynic activity in oxaliplatin-induced Sprague-Dawley rat allodynia model assessed as paw withdrawal latency time at 3.42 mg/kg, sc administered daily up to day 13 measured on day 14 post last dose by cold plate test (reference value: 12 +/- 1.2 secs).
In test [39] the test system is Rattus norvegicus. Kind of test: Antihypersensitivity in oxaliplatin-induced Sprague-Dawley rat hyperalgesia model assessed as increase in weight tolerated on posterior paw at 3.42 mg/kg, sc administered daily up to day 13 measured on day 14 post last dose by analgesimeter relative to control.
Test [40] concerns Rattus norvegicus. Kind of test: Antiallodynic activity in oxaliplatin-induced Sprague-Dawley rat allodynia model assessed as paw withdrawal latency time at 3.42 mg/kg, sc administered daily up to day 6 measured on day 7 post last dose by Von Frey test (reference value: 12.4 +/- 1.2 secs).

For the compound `Cc1ccccc1CSc1ccc(-c2ccccn2)nn1`, the Activity in the test on Rattus norvegicus [1] was 67.1%; in the test on Rattus norvegicus [3], 75.9%; in the test on Rattus norvegicus [6], 76.4%; in the test on Rattus norvegicus [8], 51.3%. The Time in the test with Rattus norvegicus [2] is on record as 17 s; with Rattus norvegicus [4] it was 14.1 s; with Rattus norvegicus [5] it was 18.3 s; in the test on Rattus norvegicus [7], 22.5 s.
As to `c1ccc(-c2ccc(SCc3nc4ccccc4s3)nn2)nc1`, the Activity came out at 54.7 g with Rattus norvegicus [9] and 72.5% in the test on Rattus norvegicus [13]. Further, the Time in the test with Rattus norvegicus [10] is listed as 15.8 s; with Rattus norvegicus [11] it was 15.8 s; in the test on Rattus norvegicus [12], 16.3 s; with Rattus norvegicus [14], 16.4 s; in the test on Rattus norvegicus [15], 14.3 s.
Consider `c1ccc(-c2ccc(SCc3ccc4ccccc4n3)nn2)nc1`, for which the Activity in the test on Rattus norvegicus [16] is given as 33%; with Rattus norvegicus [17], 31.7%; in the test with Rattus norvegicus [19], 48.4 g; in the test with Rattus norvegicus [23], 67.8%. Further, the Time is 11.6 s in the test with Rattus norvegicus [18]; 13.5 s with Rattus norvegicus [20]; 14.5 s in the test with Rattus norvegicus [21]; 13.7 s in the test with Rattus norvegicus [22]; 15.6 s in the test with Rattus norvegicus [24].
Turning to `c1ccc(-c2ccc(SCc3ccc4ccccc4c3)nn2)nc1`, the Activity in the test with Rattus norvegicus [16] was 53%; with Rattus norvegicus [17] it was 40.1%; in the test with Rattus norvegicus [19] it was 51.9 g. Moreover, the Time with Rattus norvegicus [18] is on record as 14.2 s; in the test with Rattus norvegicus [20] it was 17.6 s; in the test on Rattus norvegicus [21] it was 16 s; with Rattus norvegicus [5], 15.5 s; in the test on Rattus norvegicus [24] it was 16.5 s.
Turning to `c1ccc(-c2ccc(SCc3cccc4nonc34)nn2)nc1`, the Time with Rattus norvegicus [25] is listed as 22 s; in the test with Rattus norvegicus [26], 15.2 s; in the test on Rattus norvegicus [27] it was 19.4 s; in the test with Rattus norvegicus [29] it was 23.8 s; with Rattus norvegicus [32], 18.7 s. In addition, the Activity in the test on Rattus norvegicus [28] is 58.6 g; with Rattus norvegicus [30], 62.8%; with Rattus norvegicus [31], 62.8 g.
On to `c1ccc(-c2ccc(SCc3cc4ccccc4s3)nn2)nc1`, for which the Activity with Rattus norvegicus [33] is 55.3 g; with Rattus norvegicus [36], 64.3%; in the test on Rattus norvegicus [39], 86.2%. In addition, the Time with Rattus norvegicus [34] is 12.8 s; with Rattus norvegicus [35], 15.1 s; with Rattus norvegicus [37], 17.8 s; in the test on Rattus norvegicus [38], 17.5 s.
Turning to `c1ccc(-c2ccc(SCc3cccc4cccnc34)nn2)nc1`, the Activity in the test on Rattus norvegicus [16] is recorded as 68.7%; in the test on Rattus norvegicus [17], 44.3%; in the test with Rattus norvegicus [19], 51.3 g. Further, the Time with Rattus norvegicus [18] is on record as 12.5 s; with Rattus norvegicus [20] it was 17.6 s; with Rattus norvegicus [21], 18 s; in the test on Rattus norvegicus [40], 18.8 s; with Rattus norvegicus [5], 13.8 s; in the test with Rattus norvegicus [24], 18 s.
